Data set [1] in a line: Stability of the compound in human plasma assessed as half life […] by LC-MS analysis. It counts as ADME, cell-free.
Data set [2] can be described thus: Plasma concentration in C57BL/6J mouse at 6.2 mg/kg, ip measured upto 24 hrs by RP-HPLC analysis. The class given is ADME, organism-based.
The nature of data set [3]: Drug degradation in C57BL/6J mouse at 6.2 mg/kg, iv measured at 21 to 22 mins by RP-HPLC analysis. It counts as ADME, organism-based. The following applies: in vivo, time 21-22 min.
Data set [4] is described as follows: Half life in C57BL/6J mouse at 6.2 mg/kg, iv by RP-HPLC analysis. The class given is ADME, organism-based. To be noted: in vivo.
Data set [5] deals with T1, Kallikrein-5 (Homo sapiens, UniProt Q9Y337).
T1 sequence (Q9Y337 whole entry): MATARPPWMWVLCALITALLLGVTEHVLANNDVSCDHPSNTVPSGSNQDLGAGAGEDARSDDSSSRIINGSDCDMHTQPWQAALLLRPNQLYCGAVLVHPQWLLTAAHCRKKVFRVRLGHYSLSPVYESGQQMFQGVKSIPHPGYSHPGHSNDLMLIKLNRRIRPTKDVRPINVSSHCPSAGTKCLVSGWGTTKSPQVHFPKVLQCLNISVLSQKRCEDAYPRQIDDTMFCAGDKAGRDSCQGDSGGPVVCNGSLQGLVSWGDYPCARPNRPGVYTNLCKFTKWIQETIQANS
Nature of the data set: Inhibition of C-terminal poly-His-tagged human recombinant KLK5 (30 to 293 residues) transfected in CHO cells assessed as inhibition constant using Boc-VPR-AMC as fluorogenic substrate incubated for 30 mins by fluorescence plate reader assay. The class given is cell-based.

The target of data set [6] is Albumin (Homo sapiens, UniProt P02768). Nature of the data set: Binding affinity to human serum albumin by fluorescence polarization assay. A general note: Polarisation of emitted light reports the rotation of a fluorescent probe.
The target of data set [7] is Albumin (Mus musculus, UniProt P07724). Nature of the data set: Binding affinity to mouse serum albumin by fluorescence polarization assay.
Data set [8] concerns the target Kallikrein-7 (Mus musculus, UniProt Q91VE3). Nature of the data set: Inhibition of mouse KLK7 assessed as inhibition constant. Further details: species or system CHO; call rule not given here.
Data set [9] is described as follows: Half life in C57BL/6J mouse at 6.2 mg/kg, ip by RP-HPLC analysis. The class given is ADME, organism-based. To be noted: in vivo.
Data set [10] in a line: Drug uptake in C57BL/6J mouse skin at 12.4 mg/kg, ip measured after 48 hrs by fluorescence imaging analysis. It counts as ADME, organism-based, Skin of body. The following applies: in vivo.
Data set [11] is described as follows: Half life in C57BL/6J mouse at 6.2 mg/kg, sc by RP-HPLC analysis. It counts as ADME, organism-based. To be noted: in vivo.
Data set [12] can be described thus: Drug degradation in C57BL/6J mouse at 6.2 mg/kg, ip measured after 18 to 28 mins by RP-HPLC analysis. The class given is ADME, organism-based. To be noted: in vivo, time 18-28 min.
The nature of data set [13]: Drug degradation in C57BL/6J mouse at 6.2 mg/kg, sc measured after 18 to 28 mins by RP-HPLC analysis. It counts as ADME, organism-based. The following applies: in vivo, time 18-28 min.
Data set [14] in a line: Drug uptake in C57BL/6J mouse skin epidermis at 6.2 mg/kg, iv measured after 8 hrs by fluorescence imaging analysis. To be noted: in vivo. It counts as ADME, organism-based.
Data set [15] in a line: Drug uptake in C57BL/6J mouse skin epidermis assessed as half life at 3.2 mg/kg, iv by fluorescence imaging analysis. It counts as ADME, organism-based. The following applies: time 8 hrs.
A short description of data set [16]: Drug uptake in C57BL/6J mouse skin epidermis assessed as half life at 6.4 mg/kg, ip measured after 8 hrs by DAPI staining based fluorescence microscope assay. It counts as ADME, organism-based. The following applies: in vivo.

Each structure is given as a SMILES string. Numbered stars: 1 amine (or outer) side, 2 acyl side, 3 side chain; on linkers, the order of the positions; unused ones are H or OH. Bridge positions count the residues as written; N and C are the ends. Square brackets hold non-standard residues; d marks the D form. Peptide text beside a SMILES is read from it. I, II: the chains in the order shown. * marks the point of attachment. X2 = CN(C)c1ccc2c(c1)[Si](C)(C)C1=CC(=[N+](C)C)C=CC1=C2c1cc(C(=O)*)ccc1C(=O)O; X1 = O=C(O)c1cc(C(=O)*)ccc1-c1c2ccc(=O)cc-2oc2cc(O)ccc12; X3 = O=C(C[C@H](CCO)C(=O)[*:2])[C@H](Cc1ccc(O)cc1)N[*:1]; Palmitoyl = CCCCCCCCCCCCCCCC(=O)*; CH2COCH2 = O=C(C[*:1])C[*:2]; hSer = N[C@@H](CCO)C(=O)O; AEEA = NCCOCCOCC(=O)O

Sequence of Albumin (Homo sapiens, UniProt P02768) (P02768 whole entry): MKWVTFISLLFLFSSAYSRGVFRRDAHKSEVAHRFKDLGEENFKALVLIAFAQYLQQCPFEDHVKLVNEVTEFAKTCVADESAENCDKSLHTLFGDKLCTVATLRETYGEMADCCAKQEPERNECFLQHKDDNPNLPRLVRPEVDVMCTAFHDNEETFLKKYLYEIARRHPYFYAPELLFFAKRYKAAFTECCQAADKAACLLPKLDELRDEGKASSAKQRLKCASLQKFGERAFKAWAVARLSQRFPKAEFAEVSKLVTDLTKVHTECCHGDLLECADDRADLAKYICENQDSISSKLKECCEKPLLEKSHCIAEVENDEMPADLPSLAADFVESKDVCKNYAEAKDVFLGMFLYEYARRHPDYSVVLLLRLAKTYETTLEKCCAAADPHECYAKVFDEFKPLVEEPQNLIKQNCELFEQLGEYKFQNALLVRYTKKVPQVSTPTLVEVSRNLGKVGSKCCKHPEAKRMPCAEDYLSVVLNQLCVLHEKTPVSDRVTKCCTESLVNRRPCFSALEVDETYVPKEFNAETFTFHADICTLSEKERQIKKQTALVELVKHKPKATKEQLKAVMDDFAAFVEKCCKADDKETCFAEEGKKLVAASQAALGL
Sequence of Kallikrein-7 (Q91VE3 whole entry): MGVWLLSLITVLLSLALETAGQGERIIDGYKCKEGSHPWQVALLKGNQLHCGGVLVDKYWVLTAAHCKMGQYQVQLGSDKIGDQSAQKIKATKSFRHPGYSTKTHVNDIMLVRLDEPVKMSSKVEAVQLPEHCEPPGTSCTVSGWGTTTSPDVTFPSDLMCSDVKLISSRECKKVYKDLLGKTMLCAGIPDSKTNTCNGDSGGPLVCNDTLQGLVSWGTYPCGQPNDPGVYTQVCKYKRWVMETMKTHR
Sequence of Albumin (Mus musculus, UniProt P07724) (P07724 whole entry): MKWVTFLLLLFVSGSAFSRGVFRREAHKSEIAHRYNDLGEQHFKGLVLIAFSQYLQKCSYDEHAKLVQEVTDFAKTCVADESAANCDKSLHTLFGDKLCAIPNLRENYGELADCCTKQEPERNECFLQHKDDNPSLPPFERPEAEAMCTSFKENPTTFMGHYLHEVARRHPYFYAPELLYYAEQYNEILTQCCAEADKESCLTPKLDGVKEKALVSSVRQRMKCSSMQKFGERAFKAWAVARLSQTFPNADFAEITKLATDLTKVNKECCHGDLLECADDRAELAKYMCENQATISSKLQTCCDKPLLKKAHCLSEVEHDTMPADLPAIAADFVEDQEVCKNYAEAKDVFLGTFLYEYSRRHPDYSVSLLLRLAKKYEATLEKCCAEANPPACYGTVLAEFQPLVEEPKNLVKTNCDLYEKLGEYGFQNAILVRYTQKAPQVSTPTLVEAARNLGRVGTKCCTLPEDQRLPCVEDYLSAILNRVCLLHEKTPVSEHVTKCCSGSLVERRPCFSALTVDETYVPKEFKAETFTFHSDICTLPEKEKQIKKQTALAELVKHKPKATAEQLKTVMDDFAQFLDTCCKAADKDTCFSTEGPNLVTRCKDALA

What is called half-life is the time in which the quantity being followed falls by half. Turning to `CCCCCCCCCCCCCCCC(=O)NCCCC[C@H](NC(=O)[C@H](CCC(=O)O)NC(=O)[C@@H](Cc1ccc(O)cc1)NC(=O)[C@H](CCC(=O)O)NC(=O)COCCOCCNC(=O)c1ccc(-c2c3ccc(=O)cc-3oc3cc(O)ccc23)c(C(=O)O)c1)C(=O)N[C@@H](CCC(=O)O)C(=O)N[C@@H](Cc1ccc(O)cc1)C(=O)N[C@@H](CCC(=O)O)C(=O)NCCOCCOCC(=O)NCCCC[C@H](NC(=O)CNC(=O)[C@@H]1CSCC(=O)CSC[C@H](NC(=O)[C@@H]2CCCN2)C(=O)N[C@@H](CC(C)C)C(=O)N[C@@H](Cc2ccc(O)cc2)C(=O)N[C@@H](CCCC)C(=O)N[C@@H](C)C(=O)N[C@@H](CCCCNC(=N)N)C(=O)N1)C(=O)NCC(N)=O`, the half-life in data set [1] was > 4 days; in data set [4] it was 372 min. Besides, the concentration at 24 h in [2] turned out to be 20 µM. In addition, in data set [3], the Stability entry is recorded as “Unstable”.
By Ki is commonly meant a dissociation constant, usually derived from enzyme kinetics or from competition with a known ligand. What is called Kd is the constant that tells how readily two partners part at equilibrium. As for `CCCCCCCCCCCCCCCC(=O)NCCCC[C@H](NC(=O)[C@H](CCC(=O)O)NC(=O)[C@H](Cc1ccc(O)cc1)NC(=O)[C@H](CCC(=O)O)NC(=O)COCCOCCNC(=O)c1ccc(-c2c3ccc(=O)cc-3oc3cc(O)ccc23)c(C(=O)O)c1)C(=O)N[C@@H](CCC(=O)O)C(=O)N[C@@H](Cc1ccc(O)cc1)C(=O)N[C@@H](CCC(=O)O)C(=O)NCCOCCOCC(=O)NCCCC[C@H](NC(=O)CNC(=O)[C@@H]1CSCC(=O)CSC[C@H](NC(=O)CN)C(=O)N[C@@H]([C@@H](C)O)C(=O)N[C@@H](CCCNC(=N)N)C(=O)N[C@@H](CCC(N)=O)C(=O)N[C@@H](Cc2ccc(O)cc2)C(=O)N2CCC[C@H]2C(=O)N1)C(=O)NCC(N)=O`, the results for the Ki in data set [5] and in data set [8] were 1.2 nM and 4.1 nM, respectively. Further, the half-life was 3.75 days in data set [1], 306 min in data set [9], 348 min in [11] and 264 min in data set [4]. The Kd worked out at 119 nM in data set [6] and 7 µM in [7]. The concentration at 24 h in data set [2] was 20 µM. Also, the Drug uptake entry in data set [10] and in data set [14] was “Active” each time. The Stability entry in data set [12], in data set [3] and in [13] was “Unstable” throughout.
In the case of `CCCCCCCCCCCCCCCC(=O)NCCCC[C@H](NC(=O)[C@@H](CCO)CC(=O)[C@H](Cc1ccc(O)cc1)NC(=O)[C@H](CCO)NC(=O)COCCOCCNC(=O)c1ccc(-c2c3ccc(=O)cc-3oc3cc(O)ccc23)c(C(=O)O)c1)C(=O)N[C@@H](CCO)C(=O)N[C@@H](Cc1ccc(O)cc1)C(=O)N[C@@H](CCC(=O)O)C(=O)NCCOCCOCC(=O)NCCCC[C@H](NC(=O)CNC(=O)[C@@H]1CSCC(=O)CSC[C@H](NC(=O)CNC(C)=O)C(=O)N[C@@H]([C@@H](C)O)C(=O)N[C@@H](CCCNC(=N)N)C(=O)N[C@@H](CCC(N)=O)C(=O)N[C@@H](Cc2ccc(O)cc2)C(=O)N2CCC[C@H]2C(=O)N1)C(=O)NCC(N)=O` (I: Ac-GCTRQYPCGKG-NH2 / II: {X1-AEEA}-[hSer][X3]K(Palmitoyl)[hSer]YE[AEEA]; linker I:2-I:8 via CH2COCH2; amide I:10-II:C), the half-life in [15] is 38.4 min.
For the compound `CCCCCCCCCCCCCCCC(=O)NCCCC[C@H](NC(=O)[C@@H](CCO)CC(=O)[C@H](Cc1ccc(O)cc1)NC(=O)[C@H](CCO)NC(=O)COCCOCCNC(=O)c1ccc(C(=O)O)c(C2=C3C=CC(=[N+](C)C)C=C3[Si](C)(C)c3cc(N(C)C)ccc32)c1)C(=O)N[C@@H](CCO)C(=O)N[C@@H](Cc1ccc(O)cc1)C(=O)N[C@@H](CCC(=O)O)C(=O)NCCOCCOCC(=O)NCCCC[C@H](NC(=O)CNC(=O)[C@@H]1CSCC(=O)CSC[C@H](NC(=O)CNC(C)=O)C(=O)N[C@@H]([C@@H](C)O)C(=O)N[C@@H](CCCNC(=N)N)C(=O)N[C@@H](CCC(N)=O)C(=O)N[C@@H](Cc2ccc(O)cc2)C(=O)N2CCC[C@H]2C(=O)N1)C(=O)NCC(N)=O` (I: Ac-GCTRQYPCGKG-NH2 / II: {X2-AEEA}-[hSer][X3]K(Palmitoyl)[hSer]YE[AEEA]; linker I:2-I:8 via CH2COCH2; amide I:10-II:C), the Drug uptake result in data set [16] is “Active”.

For the origin of these results see ChEMBL document CHEMBL5137037, “Phage Display Selected Cyclic Peptide Inhibitors of Kallikrein-Related Peptidases 5 and 7 and Their In Vivo Delivery to the Skin” (J Med Chem, 2022).
